Measured values as given in paper PMC7665585, “Antidepressive effect of an inward rectifier K^+ channel blocker peptide, tertiapin-RQ” (PLoS ONE, 2020).
Entries after “also recorded” stand apart in the source; their conditions may differ. Bridge positions count the residues as written; N and C are the ends. Ends that are not written are not given here. Peptide text beside a SMILES is read from it.

biological target: T1, rat ROMK (Rattus norvegicus, UniProt P35560); test: Whole-cell patch-clamp of ROMK currents in 208–4 cells; format: cell-based; details: blockade at 1 μM estimated from fitted Hill curve (four parameters), whole-cell conductance, n = 3–6
T1 construct: expressed in transfected cells; host or cells: 293T cell line 208-4 (lentiviral transduction, GFP coexpressed)
T1 sequence (P35560 1-391): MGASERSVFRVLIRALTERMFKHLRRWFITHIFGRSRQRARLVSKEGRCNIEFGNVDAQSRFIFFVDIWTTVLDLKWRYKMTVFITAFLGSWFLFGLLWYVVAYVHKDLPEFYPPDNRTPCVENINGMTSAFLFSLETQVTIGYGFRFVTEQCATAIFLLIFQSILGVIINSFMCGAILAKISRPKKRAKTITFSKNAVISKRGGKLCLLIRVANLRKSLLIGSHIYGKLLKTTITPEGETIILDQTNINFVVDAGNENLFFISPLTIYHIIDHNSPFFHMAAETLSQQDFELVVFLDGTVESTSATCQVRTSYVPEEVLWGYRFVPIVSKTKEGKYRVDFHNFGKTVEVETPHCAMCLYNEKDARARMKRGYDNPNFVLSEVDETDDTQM
Source text: The cDNAs for rat ROMK and mouse GIRK1, 2, and 4 were generously donated by Drs Mikio Hayashi (Kansai Medical University) and David Weaver (Vanderbilt University). The ROMK channels were stably expressed by a cell line, 208–4, which was transduced with lentiviral vectors coexpressing the channel and green fluorescent protein (GFP) as described previously. The GIRK genes, cloned in a pCMV6 plasmid (Origene Technologies Inc, Rockville, MD), were transiently expressed in 293T cells with calcium phosphate transfection. GIRK channel currents were recorded 24 h after transfection.
Cells grown on small cover glasses (3 × 18 mm) were placed in a recording chamber. Whole-cell currents were recorded in Tyrode solution using an Axopatch 200B amplifier (Axon Instruments, Foster City, CA) at 25°C. Tyrode solution contained (in mM): NaCl 140, KCl 5.4, NaH2PO4 0.33, CaCl2 2, MgCl2 1, HEPES 5, and glucose 5.5 (pH 7.4 adjusted with NaOH). High K^+ Tyrode solution (KCL 50 mM, NaCl 95 mM, and others were the same as standard Tyrode solution) was used for the recording of GIRK channels. Patch pipettes pulled from borosilicate glass (Narishige, Tokyo, Japan) were filled with an internal solution containing (in mM): K-aspartate 66, KCl 71.5, KH2PO4 1, EGTA 5, HEPES 5, and MgATP 3 (pH 7.4 adjusted with KOH). Recordings were digitized at 10 kHz, and low-pass filtered at 2 kHz. ROMK, Kir2.1, and GIRK currents were evoked with step pulses of 400 msec from -150 mV to 10 mV in 10 mV increments from a holding potential of -70 mV. Whole-cell currents were recorded 60 sec after the peptide application and those from 100 to 300 msec of the step pulses were averaged. Liquid junction potential or capacitive transient was not corrected or compensated. Whole-cell conductance was calculated as the slope of the current-voltage (I-V) relationship from -140 mV to -100 mV and normalized to the initial value (0 μM TPN), in which BaCl2-resistant current was subtracted and indicted as a percentage.

Row | Compound | Activity (ROMK channel blocking activity, percentage of blockade at 1 μM)
1 | TPN-RQ(C5S) [Peptide 46] | - (-, <20%)
2 | TPN 1–8 (ALCNCNRI) [Peptide 4, Partial TPN peptide (8 amino acids)] | - (-, <20%)

same assay, conditions: blockade at 1 μM estimated from fitted Hill curve (four parameters), whole-cell conductance, n = 3–6, read-out: Activity (ROMK channel blocking activity, percentage of blockade at 1 μM)

Row | Compound | inhibition at 1 µM [%]
3 | CC[C@H](C)[C@@H]1NC(=O)[C@H](CCCNC(=N)N)NC(=O)[C@H](CCCNC(=N)N)NC(=O)[C@H](CC(N)=O)NC(=O)[C@@H]2CSSC[C@@H](C(=O)NCC(=O)N[C@@H](CCCCN)C(=O)N[C@@H](CCCCN)C(N)=O)NC(=O)[C@H](CCCCN)NC(=O)[C@H](CCCCN)NC(=O)[C@H](Cc3c[nH]c4ccccc34)NC(=O)[C@H](CSSC[C@H](NC(=O)[C@H](CC(C)C)NC(=O)[C@H](C)N)C(=O)N[C@@H](CC(N)=O)C(=O)N2)NC(=O)[C@H](CCC(N)=O)NC(=O)[C@H](C)NC(=O)[C@@H]2CCCN2C(=O)[C@H]([C@@H](C)CC)NC1=O [Peptide 63, TPN-RQ(H12A)] (H-ALCNCNRRIIPAQCWKKCGKK-NH2; disulfide 3-14, 5-18) | 40 to 60
4 | CC[C@H](C)[C@@H]1NC(=O)[C@H](CCCNC(=N)N)NC(=O)[C@H](CCCNC(=N)N)NC(=O)[C@H](CC(N)=O)NC(=O)[C@@H]2CSSC[C@@H](C(=O)NCC(=O)N[C@@H](CCCCN)C(=O)N[C@@H](CCCCN)C(N)=O)NC(=O)[C@H](CCCCN)NC(=O)[C@H](CCCCN)NC(=O)[C@H](Cc3c[nH]c4ccccc34)NC(=O)[C@H](CSSC[C@H](NC(=O)[C@H](CC(C)C)NC(=O)[C@H](C)N)C(=O)N[C@@H](CC(N)=O)C(=O)N2)NC(=O)[C@H](C)NC(=O)[C@H](Cc2c[nH]cn2)NC(=O)[C@@H]2CCCN2C(=O)[C@H]([C@@H](C)CC)NC1=O [Peptide 64, TPN-RQ(Q13A)] (H-ALCNCNRRIIPHACWKKCGKK-NH2; disulfide 3-14, 5-18) | 20 to 40
5 | RRIIPHMC-NH2 [Peptide 19, TPN-R 7–14] | < 20
6 | RRIIAHQK-NH2 [Peptide 27, TPN-RQ 7-13(P11A) + K] | < 20
7 | CC[C@H](C)[C@@H]1NC(=O)[C@H](CCCNC(=N)N)NC(=O)[C@H](CC(N)=O)NC(=O)[C@@H]2CSSC[C@@H](C(=O)NCC(=O)N[C@@H](CCCCN)C(=O)N[C@@H](CCCCN)C(N)=O)NC(=O)[C@H](CCCCN)NC(=O)[C@H](CCCCN)NC(=O)[C@H](Cc3c[nH]c4ccccc34)NC(=O)[C@H](CSSC[C@H](NC(=O)[C@H](CC(C)C)NC(=O)[C@H](C)N)C(=O)N[C@@H](CC(N)=O)C(=O)N2)NC(=O)[C@H](CCC(N)=O)NC(=O)[C@H](Cc2c[nH]cn2)NC(=O)[C@@H]2CCCN2C1=O [Peptide 52, TPN-RQ(Δ8R/ΔI9)] (H-ALCNCNRIPHQCWKKCGKK-NH2; disulfide 3-12, 5-16) | < 20
8 | CC[C@H](C)[C@@H]1NC(=O)[C@H](CCCNC(=N)N)NC(=O)[C@H](CCCNC(=N)N)NC(=O)[C@H](CC(N)=O)NC(=O)[C@@H]2CSSC[C@@H](C(=O)N[C@@H](C)C(=O)N[C@@H](CCCCN)C(=O)N[C@@H](CCCCN)C(N)=O)NC(=O)[C@H](CCCCN)NC(=O)[C@H](CCCCN)NC(=O)[C@H](Cc3c[nH]c4ccccc34)NC(=O)[C@H](CSSC[C@H](NC(=O)[C@H](CC(C)C)NC(=O)[C@H](C)N)C(=O)N[C@@H](CC(N)=O)C(=O)N2)NC(=O)[C@H](CCC(N)=O)NC(=O)[C@H](Cc2c[nH]cn2)NC(=O)[C@@H]2CCCN2C(=O)[C@H]([C@@H](C)CC)NC1=O [Peptide 67, TPN-RQ(G19A)] (H-ALCNCNRRIIPHQCWKKCAKK-NH2; disulfide 3-14, 5-18) | 60 to 80
9 | CC[C@H](C)[C@@H]1NC(=O)[C@H](CCCNC(=N)N)NC(=O)[C@H](CCCNC(=N)N)NC(=O)[C@H](CC(N)=O)NC(=O)[C@@H]2CSSC[C@@H](C(=O)NCC(=O)N[C@@H](CCCCN)C(=O)N[C@@H](CCCCN)C(N)=O)NC(=O)[C@H](CCCCN)NC(=O)[C@H](CCCCN)NC(=O)[C@H](Cc3c[nH]c4ccccc34)NC(=O)[C@H](CSSC[C@H](NC(=O)[C@H](CC(C)C)NC(=O)[C@H](C)N)C(=O)N[C@@H](CC(N)=O)C(=O)N2)NC(=O)[C@H](CCC(N)=O)NC(=O)[C@H](Cc2c[nH]cn2)NC(=O)[C@H](C)NC(=O)[C@H]([C@@H](C)CC)NC1=O [Peptide 62, TPN-RQ(P11A)] (H-ALCNCNRRIIAHQCWKKCGKK-NH2; disulfide 3-14, 5-18) | > 80
10 | CC[C@H](C)[C@@H]1NC(=O)[C@H](CCCNC(=N)N)NC(=O)[C@H](CCCNC(=N)N)NC(=O)[C@H](CC(N)=O)NC(=O)[C@@H]2CSSC[C@@H](C(=O)NCC(=O)N[C@@H](CCCCN)C(=O)N[C@@H](CCCCN)C(N)=O)NC(=O)[C@H](CCCCN)NC(=O)[C@H](CCCCN)NC(=O)[C@H](Cc3c[nH]c4ccccc34)NC(=O)[C@H](CSSC[C@H](NC(=O)[C@H](CC(C)C)NC(=O)[C@H](C)N)C(=O)N[C@@H](C)C(=O)N2)NC(=O)[C@H](CCC(N)=O)NC(=O)[C@H](Cc2c[nH]cn2)NC(=O)[C@@H]2CCCN2C(=O)[C@H]([C@@H](C)CC)NC1=O [Peptide 56, TPN-RQ(N4A)] (H-ALCACNRRIIPHQCWKKCGKK-NH2; disulfide 3-14, 5-18) | 60 to 80
11 | CC[C@H](C)[C@@H]1NC(=O)[C@H](CCCNC(=N)N)NC(=O)[C@H](CCCNC(=N)N)NC(=O)[C@H](CC(N)=O)NC(=O)[C@H](CO)NC(=O)[C@H](CC(N)=O)NC(=O)[C@@H](NC(=O)[C@@H](N)CCC(N)=O)CSSC[C@@H](C(=O)N[C@@H](Cc2c[nH]c3ccccc23)C(=O)N[C@@H](CCCCN)C(N)=O)NC(=O)[C@H](CCC(N)=O)NC(=O)[C@H](Cc2c[nH]cn2)NC(=O)[C@@H]2CCCN2C(=O)[C@H]([C@@H](C)CC)NC1=O [Peptide 43, Q + TPN-RQ 3-16(C5S)] (H-QCNSNRRIIPHQCWK-NH2; disulfide 2-13) | < 20
12 | RIIIPHQC-NH2 [Peptide 18, TPN-Q 7–14] | < 20
13 | CC[C@H](C)[C@@H]1NC(=O)[C@H](CCCNC(=N)N)NC(=O)[C@H](CCCNC(=N)N)NC(=O)[C@H](CC(N)=O)NC(=O)[C@@H]2CSSC[C@@H](C(=O)NCC(N)=O)NC(=O)[C@H](CCCCN)NC(=O)[C@H](CCCCN)NC(=O)[C@H](Cc3c[nH]c4ccccc34)NC(=O)[C@H](CSSC[C@H](NC(=O)[C@H](CC(C)C)NC(=O)[C@H](C)N)C(=O)N[C@@H](CC(N)=O)C(=O)N2)NC(=O)[C@H](CCC(N)=O)NC(=O)[C@H](Cc2c[nH]cn2)NC(=O)[C@@H]2CCCN2C(=O)[C@H]([C@@H](C)CC)NC1=O [Peptide 71, TPN-RQ(Δ20K/Δ21K)] (H-ALCNCNRRIIPHQCWKKCG-NH2; disulfide 3-14, 5-18) | 20 to 40
14 | RIIIPHQK-NH2 [Peptide 21, TPN-Q 7–13 + K] | < 20
15 | RRIIPHQC-NH2 [Peptide 20, TPN-RQ 7–14] | < 20
16 | RRIIPHQK-NH2 [Peptide 22, TPN-RQ 7–13 + K] | < 20
17 | IPHMCWKK-NH2 [Peptide 13, TPN 10–17] | < 20
18 | NRIIIPHM-NH2 [Peptide 9, TPN 6–13] | < 20
19 | CC[C@H](C)[C@@H]1NC(=O)[C@H](CCCNC(=N)N)NC(=O)[C@H](CCCNC(=N)N)NC(=O)[C@H](CC(N)=O)NC(=O)[C@@H]2CSSC[C@@H](C(=O)NCC(=O)N[C@@H](CCCCN)C(=O)N[C@@H](CCCCN)C(N)=O)NC(=O)[C@H](CCCCN)NC(=O)[C@H](CCCCN)NC(=O)[C@H](Cc3c[nH]c4ccccc34)NC(=O)[C@H](CSSC[C@H](NC(=O)[C@H](CC(C)C)NC(=O)[C@H](C)N)C(=O)N[C@@H](CC(N)=O)C(=O)N2)NC(=O)[C@H](CCC(N)=O)NC(=O)[C@H](Cc2c[nH]cn2)NC(=O)[C@@H]2CCCN2C(=O)[C@H](C)NC1=O [Peptide 61, TPN-RQ(I10A)] (H-ALCNCNRRIAPHQCWKKCGKK-NH2; disulfide 3-14, 5-18) | 20 to 40
20 | CNRIIIPH-NH2 [Peptide 8, TPN 5–12] | < 20

same assay, conditions: whole-cell recordings

Row | Compound | ROMK blocking activity (in words)
21 | TPN-RQ(C5S) [Peptide 46] | little blocking activity; also recorded: scarcely blocked the channel
